# Assay results taken from patent US9562053B2, “Benzo-fused heterocyclic derivatives useful as agonists of GPR120” (Janssen Pharmaceutica NV, priority 2013, dated 2017).
# Molecular target: T1, long form of human GPR120 (Homo sapiens, UniProt Q5NUL3)
# T1 construct: host or cells: PathHunter CHO-K1 GPR120 β-Arrestin Cell Line
# T1 sequence (Q5NUL3 1-377 isoform Q5NUL3-1): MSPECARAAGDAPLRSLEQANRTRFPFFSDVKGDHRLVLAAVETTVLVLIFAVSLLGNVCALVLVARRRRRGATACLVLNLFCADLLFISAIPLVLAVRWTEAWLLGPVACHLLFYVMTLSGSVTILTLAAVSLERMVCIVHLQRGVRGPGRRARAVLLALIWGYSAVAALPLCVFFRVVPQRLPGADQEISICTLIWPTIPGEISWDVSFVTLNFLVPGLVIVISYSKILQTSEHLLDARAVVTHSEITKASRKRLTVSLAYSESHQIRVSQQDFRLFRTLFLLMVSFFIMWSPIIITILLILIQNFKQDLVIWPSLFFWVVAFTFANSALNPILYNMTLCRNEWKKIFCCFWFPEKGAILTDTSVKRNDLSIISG
# Experiment: Human GPR120 DiscoveRx PathHunter Beta-Arrestin Assay, Procedure β-arrestin A (3000 cells per well)
# Format: cell-based
# Conditions: read-out: GPR120 B-arrestin A EC50
# Text: The binding of an agonist (medium/long chain fatty acids or small molecule agonists) to the G-protein-coupled receptor GPR120 activates phospholipase C, leading to release of intracellular Ca^+2 through the generation of inositol 1,4,5-trisphosphate (InsP3 or IP3). GPR120 activation can also trigger intracellular signaling via recruitment of β-Arrestin. In the present method, agonist-induced activation of the human GPR120 receptor is monitored through the use of PathHunter CHO-K1 GPR120 β-Arrestin Cell Line engineered by DiscoveRx, as detailed below. The cell lines are designed to co-express both the ProLink/Enzyme Donor (PK)-tagged GPCR and the Enzyme Activator (EA)-tagged β-Arrestin fusion proteins. Upon GPR120 receptor stimulation/activation, the EA-tagged β-Arrestin portion is translocated to the tagged receptor, where the two enzyme fragments are brought within close proximity. Under these conditions, these fragments can interact and form an active Beta-gal enzyme complex through Enzyme Fragment Complementation (EFC). This active Beta-gal complex can enzymatically hydrolyse the substrate to produce a detectable light signal; therefore, activation as a function of agonist concentration can be expressed as an EC50 value to determine relative compound activities. This in vitro assay therefore serves to assess compound agonist activity of the GPR120.
# In Procedure β-arrestin A, the cell used were PathHunter CHO-K1 GPR120 β-Arrestin Cell Line, expressing the long form of human GPR120 (Genbank accession number NM_181745), with 3000 cells per well.
# The selected CHO-K1 GPR120 β-Arrestin cells were cultured in Ham's F12 media supplemented with 10% fetal bovine serum (FBS), 1% Glutamine, 1×p/s, 800 μg/ml G418 and 300 μg/ml Hygromycin B (for selection). Cell stocks were maintained and grown in a sub-confluent state using standard cell culture procedures. The day before the experiment, the cells were harvested with non-enzymatic cell dissociation buffer and re-suspended in complete growth media at the desired concentration. A Corning 384-plate was then seeded with the proper number of cells in a volume of 25 μL, per well. The seeded plates were incubated overnight at 37° C.
# On the day of the experiment, the Assay Buffer containing (a) HBSS with Ca^++ and Mg^++, (b) 20 mM HEPES, and (c) 0.1% BSA stabilizer (pH 7.4) was prepared. The growth medium was gently removed from the cell plates and 20 μL of Assay Buffer added to each well. The plate was then incubated at 37° C. for 60 mins. Test compounds were serially diluted in Assay Buffer to desired concentrations (more particularly, to one or more of the following μM concentrations: 25 μM, 12.5 μM, 6.25 μM, 3.125 μM, 1.562 μM, 0.781 μM, 0.391 μM, 0.195 μM, 0.098 μM, 0.049 μM, 0.024 μM, 0.012 μM). Five μl of compound dilution was then added to each well and the plate incubated at 37° C. for 90 mins. The detection reagents were prepared according to the manufacture's instruction. Twelve μL of the detection reagents were added to each well and the plate incubated at room temperature for 60 mins.
# The plates were read on an EnVision instrument, using Protocol name: Luminescence, Plate type: 384 Costar, Measurement height: 3 mm, Measurement time: 1 s, Aperture: 384 Plate aperture. The % activity relative to the positive control was calculated using the following equation:
# The % Activity values were plotted versus the concentration of test compound and fitted to a sigmoidal dose-response curve with a Hill slope=1 (fixed value) using nonlinear regression with GraphPad Prism 5.0 to calculate the EC50 values. The Fitting Equation was: Y=Bottom+(Top−Bottom)/(1+10^((LogEC50−X)*HillSlope)), where X is the log of the concentration and Y is the response.
row,SMILES,EC50 [nM]
1,"Cc1nc2c(COc3ccc(CCC(=O)O)c(C)c3C)cc(Cl)cc2s1 [Compound 98, 3-{4-[(6-Chloro-2-methyl-1,3-benzothiazol-4-yl)methoxy]-2,3-dimethylphenyl}propanoic acid]",154
2,"CCc1cc2ccc(OC(F)F)c(COc3ccc(CCC(=O)O)c(C)c3C)c2o1 [Compound 70, 3-(4-{[6-(Difluoromethoxy)-2-ethyl-1-benzofuran-7-yl]methoxy}-2,3-dimethylphenyl)propanoic acid]",2500
3,"CCOc1cc(COc2ccc(CCC(=O)O)c(C)c2C)c2oc(CC)cc2c1 [Compound 29, 3-{4-[(5-Ethoxy-2-ethyl-1-benzofuran-7-yl)methoxy]-2,3-dimethylphenyl}propanoic acid]",616
4,"Cc1cc2c(COc3ccc(CCC(=O)O)c(C)c3C)cc(Cl)cc2o1 [Compound 81, 3-{4-[(6-Chloro-2-methyl-1-benzofuran-4-yl)methoxy]-2,3-dimethylphenyl}propanoic acid]",817
5,"Cc1c(CCC(=O)O)ccc(OCc2cc(F)cc3cc(C(F)(F)F)oc23)c1C [Compound 4, 3-(4-{[5-Fluoro-2-(trifluoromethyl)-1-benzofuran-7-yl]methoxy}-2,3-dimethylphenyl)propanoic acid]",5210
6,"CCc1cc2cc(Cl)cc(COc3ccc(CCC(=O)O)c(C)c3C)c2o1 [Compound 11, 3-{4-[(5-Chloro-2-ethyl-1-benzofuran-7-yl)methoxy]-2,3-dimethylphenyl}propanoic acid]",283
7,"CCCc1cc2cc(OC(F)(F)F)cc(COc3ccc(CCC(=O)O)c(C)c3C)c2o1 [Compound 35, 3-(2,3-Dimethyl-4-{[2-propyl-5-(trifluoromethoxy)-1-benzofuran-7-yl]methoxy}phenyl)propanoic acid]",190
8,"Cc1cc2cc(Cl)cc(COc3c(F)cc(CCCO)cc3F)c2s1 [Compound 93, 3-{4-[(5-Chloro-2-methyl-1-benzothiophen-7-yl)methoxy]-3,5-difluorophenyl}propan-1-ol]",536
9,"Cc1c(CCC(=O)O)ccc(OCc2cc(F)cc3cc(C(F)F)oc23)c1C [Compound 32, 3-(4-{[2-(Difluoromethyl)-5-fluoro-1-benzofuran-7-yl]methoxy}-2,3-dimethylphenyl)propanoic acid]",2910
10,"Cc1c(CCC(=O)O)ccc(OCc2cc(OC(F)(F)F)cc3cc(C=CF)oc23)c1C (mixture of isomers) [Compound 97, 3-(4-{[2-(2-Fluoroethenyl)-5-(trifluoromethoxy)-1-benzofuran-7-yl]methoxy}-2,3-dimethylphenyl)propanoic acid]",169
11,"Cc1cc2cc(OC(F)(F)F)cc(COc3ccc(CCC(=O)O)c4c3CCC4)c2o1 [Compound 55, 3-(7-{[2-Methyl-5-(trifluoromethoxy)-1-benzofuran-7-yl]methoxy}-2,3-dihydro-1H-inden-4-yl)propanoic acid]",73
12,"Cc1c(CCC(=O)O)ccc(OCc2cc(F)cc3cc(C#N)oc23)c1C [Compound 49, 3-{4-[(2-Cyano-5-fluoro-1-benzofuran-7-yl)methoxy]-2,3-dimethylphenyl}propanoic acid]",507
13,"CC#Cc1cc(COc2ccc(CCC(=O)O)c(C)c2C)c2oc(C)cc2c1 [Compound 83, 3-{2,3-Dimethyl-4-[(2-methyl-5-prop-1-yn-1-yl-1-benzofuran-7-yl)methoxy]phenyl}propanoic acid]",440
14,"CCc1cc2cc(Cl)c(OCC(F)(F)F)c(COc3ccc(CCC(=O)O)c(C)c3C)c2o1 [Compound 64, 3-(4-{[5-Chloro-2-ethyl-6-(2,2,2-trifluoroethoxy)-1-benzofuran-7-yl]methoxy}-2,3-dimethylphenyl)propanoic acid]",271
15,"Cc1c(CCC(=O)O)ccc(OCc2cc(Cl)cc3cc(C=CF)oc23)c1C (mixture of isomers) [Compound 88, 3-(4-((5-Chloro-2-(2-fluorovinyl)benzofuran-7-yl)methoxy)-2,3-dimethylphenyl)propanoic acid]",594
16,"Cc1cc2cc(Cl)cc(COc3ccc(CCC(=O)O)c(C)c3C)c2o1 [Compound 78, 3-{4-[(5-Chloro-2-methyl-1-benzofuran-7-yl)methoxy]-2,3-dimethylphenyl}propanoic acid]",121
17,"Cc1cc2c(F)c(OC(F)(F)F)c(F)c(COc3ccc(CCC(=O)O)c(C)c3C)c2o1 [Compound 71, 3-(4-{[4,6-Difluoro-2-methyl-5-(trifluoromethoxy)-1-benzofuran-7-yl]methoxy}-2,3-dimethylphenyl)propanoic acid]",45
18,"CCc1cc2cc(OC(F)(F)F)cc(COc3ccc(CCC(=O)O)c4c3CCC4)c2o1 [Compound 52, 3-(7-{[2-Ethyl-5-(trifluoromethoxy)-1-benzofuran-7-yl]methoxy}-2,3-dihydro-1H-inden-4-yl)propanoic acid]",374
19,"Cc1oc2c(COc3ccc(CCC(=O)O)c(C)c3C)cc(F)cc2c1F [Compound 5, 3-{4-[(3,5-Difluoro-2-methyl-1-benzofuran-7-yl)methoxy]-2,3-dimethylphenyl}propanoic acid]",949
20,"Cc1c(CCC(=O)O)ccc(OCc2cc(Cl)cc3cn(C)nc23)c1C [Compound 8, 3-{4-[(5-Chloro-2-methyl-2H-indazol-7-yl)methoxy]-2,3-dimethylphenyl}propanoic acid]",613
21,"Cc1cc2cc(OC(F)F)cc(COc3ccc(CCC(=O)O)c(C)c3C)c2o1 [Compound 76, 3-(4-{[5-(Difluoromethoxy)-2-methyl-1-benzofuran-7-yl]methoxy}-2,3-dimethylphenyl)propanoic acid]",144
22,"CCCc1cc2cc(Cl)cc(COc3ccc(CCC(=O)O)c(F)c3F)c2o1 [Compound 59, 3-{4-[(5-Chloro-2-propyl-1-benzofuran-7-yl)methoxy]-2,3-difluorophenyl}propanoic acid]",146
23,"CCCc1cc2cc(Cl)cc(COc3ccc(CCC(=O)O)c(C)c3C)c2o1 [Compound 31, 3-{4-[(5-Chloro-2-propyl-1-benzofuran-7-yl)methoxy]-2,3-dimethylphenyl}propanoic acid]",232
24,"CCCc1cc2cc(OC(F)F)cc(COc3ccc(CCC(=O)O)c(C)c3C)c2o1 [Compound 77, 3-(4-{[5-(Difluoromethoxy)-2-propyl-1-benzofuran-7-yl]methoxy}-2,3-dimethylphenyl)propanoic acid]",176
25,"CCCc1cc2cc(Cl)cc(COc3ccc(CCC(=O)O)c(C)c3C#N)c2o1 [Compound 41, 3-{4-[(5-Chloro-2-propyl-1-benzofuran-7-yl)methoxy]-3-cyano-2-methylphenyl}propanoic acid]",626
26,"CCc1cc2cc(Cl)cc(COc3ccc(CCC(=O)O)c4c3CCC4)c2o1 [Compound 54, 3-{7-[(5-Chloro-2-ethyl-1-benzofuran-7-yl)methoxy]-2,3-dihydro-1H-inden-4-yl}propanoic acid]",429
27,"CCc1cc2cc(Br)cc(COc3ccc(CCC(=O)O)c(C)c3C)c2o1 [Compound 45, 3-{4-[(5-Bromo-2-ethyl-1-benzofuran-7-yl)methoxy]-2,3-dimethylphenyl}propanoic acid]",95
